Source: publication PMC7763088, “Impact of Different Lipid Ligands on the Stability and IgE-Binding Capacity of the Lentil Allergen Len c 3” (Biomolecules, 2020)
Where two headings read alike, the source gives them in different places.

T1: rLen c 3 (Lens culinaris, UniProt A0AT29)
T1 construct: with the formation of the large fragment 1–80 and the protein without C-terminal Phe93; His8-TrxL (octahistidine-thioredoxin carrier) (N, cleaved yes); made in house; host or cells: Escherichia coli BL-21 (DE3)
T1 sequence (A0AT29 26-118): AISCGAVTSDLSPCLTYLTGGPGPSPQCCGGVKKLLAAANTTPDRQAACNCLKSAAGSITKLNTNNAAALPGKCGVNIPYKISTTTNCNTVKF

B1: bovine α-casein: bovine α-casein (Sigma), control substrate for proteolytic digestion (protein, UniProt P02662 16-214; P02663 16-222, looked up)
Alpha-S1-casein: RPKHPIKHQGLPQEVLNENLLRFFVAPFPEVFGKEKVNELSKDIGSESTEDQAMEDIKQMEAESISSSEEIVPNSVEQKHIQKEDVPSERYLGYLEQLLRLKKYKVPQLEIVPNSAEERLHSMKEGIHAQQKEPMIGVNQELAYFYPELFRQFYQLDAYPSGAWYYVPLGTQYTDAPSFSDIPNPIGSENSEKTTMPLW
Alpha-S2-casein: KNTMEHVSSSEESIISQETYKQEKNMAINPSKENLCSTFCKEVVRNANEEEYSIGSSSEESAEVATEEVKITVDDKHYQKALNEINQFYQKFPQYLQYLYQGPIVLNPWDQVKRNAVPITPTLNREQLSTSEENSKKTVDMESTEVFTKKTKLTEEEKNRLNFLKKISQRYQKFALPQYLKTVYQHQKAMKPWIQPKTKVIPYVRYL

What was measured:
rLen c 3 [1] = target: T1, rLen c 3; parameters: method as in PMID 28266846; conditions: among saturated FAs; cited from earlier work
rLen c 3 [2] = target: T1, rLen c 3; experiment: TNS displacement lipid binding assay; parameters: species or system lentil; conditions: for IC50: 25 °C, 4 μM TNS, 4 μM rLen c 3; for Change of rLen c 3 affinity for the ligand at acidic pH: pH 2.5 compared with pH 7.4
Protocol: The ability of rLen c 3 to bind lipids was assayed by monitoring the displacement of the fluorescent probe TNS. Fluorescence intensity was measured at 25 °C with a F-2710 spectrofluorimeter (Hitachi, Tokyo, Japan), using a […] slit width for both excitation (λ = 320 nm) and emission (λ = 437 nm) and the measurement taken for no longer than 1.5–2 s. After equilibrating TNS (4 μM) in 10 mM phosphate buffer, pH 7.4, or 150 mM sodium chloride, pH 2.5, for 2 min with gentle mixing, the 2 mM of competing ligand was titrated into the 2 mL of 4 μM rLen c 3 solution in 1 μL aliquots. The resulting data were fitted by using a sigmoidal curve-fitting in GraphPad Prism from which the concentration able to displace 50% of the TNS (IC50) was calculated. The dependence of the ligand binding on temperature was performed at 20, 40, 60, 90, and 20 °C, after cooling down as previously described. Temperature was checked with a temperature probe in the cuvette. Each experiment was performed in triplicate, independently.

rLen c 3 [3] = target: T1, rLen c 3; experiment: Effect of lipid ligands on gastrointestinal digestion of rLen c 3; assay type: in vitro ADME, lentil; conditions: for Effect of ligand on rLen c 3 degradation rate (proteolytic digestion): gastric then duodenal digestion
Protocol: (§1) Simulation of gastrointestinal digestion in vitro was performed as described in [15]. Briefly, gastric digestion was performed for 2 h, using 50 ng of pepsin (p) (Sigma) per 1 μg of rLen c 3 in 0.1 M HCl, pH 2.0 (final protein concentration 0.05 mM). For duodenal digestion, pH of the mixture resulting from gastric digestion was adjusted to 8.0 by addition of ammonium bicarbonate. The obtained mixture was incubated for 24 h at 37 °C with 2.5 ng of trypsin (t) (Promega, Madison, WI, USA) and 10 ng of α-chymotrypsin (ch) (Sigma) per 1 μg of the substrate. Degree of proteolysis was monitored by sodium dodecyl sulfate polyacrylamide gel electrophoresis (SDS-PAGE) under reducing conditions and reversed-phase high-performance liquid chromatography (RP-HPLC) on Luna C18 column (5 μm, 250 × 4.6 mm; Phenomenex, Torrance, CA, USA) at a flow rate of 0.5 mL/min, using a gradient of acetonitrile concentration from 5 to 65% for 45 min in 0.1% trifluoroacetic acid (TFA). Gel analysis was performed, using a densitometer. Electroblotting and subsequent N-terminal protein sequencing were performed as described. The protein was preheated at 100 °C for 30 min to study the effect of temperature on allergen stability. rLen c 3 was preloaded with various lipid ligands (LTP to lipid molar ratio 1:4) for 10 min, in order to investigate their effects on allergen resistance to proteolytic digest. As a control of the influence of lipid ligands on the work of proteolytic enzymes, the same reactions were carried out, using bovine α-casein (Sigma) as a substrate. Some independent experiments were performed in each case.

rLen c 3 [4] = target: T1, rLen c 3; experiment: Effect of lipid ligands on secondary structure and thermostability of rLen c 3 (CD spectroscopy); assay type: physicochemical, lentil; conditions: for Effect of ligand on rLen c 3 thermostability (resistance to thermal denaturation): heating up to 98.5 °C; for Effect of ligand on rLen c 3 thermostability (resistance to thermal denaturation) / Recovery of rLen c 3 structure after cooling down in the presence of ligand: pH 7.4, ligand 1 mM; for Recovery of rLen c 3 structure after cooling down in the presence of ligand: cooling down to 20 °C after 98.5 °C
Protocol: Circular dichroism spectra were recorded at different temperatures, using a J-810 spectropolarimeter (Jasco, Hachioji, Tokyo, Japan) in a 0.1 cm path length quartz cell (Hellma GmbH & Co. KG, Mullheim, Germany) in the 190–250 nm range, and 0.2, using solutions of rLen c 3 in 10 mM phosphate buffer, pH 7.4, or 150 mM sodium chloride, pH 2.5, simulated gastric fluid, at a concentration of 17 µM. Fatty acids or lysolipids were added at a final concentration of 1 mM. Each experiment was performed twice, independently.

pepsin = experiment: In vitro gastric digestion (SDS-PAGE); assay type: in vitro ADME; conditions: first 5 min; control substrate
Protocol: as §1, with “As a control of the influence of lipid ligands on the work of proteolytic enzymes, the same reactions were carried out, using bovine α-casein (Sigma) as a substrate. Some independent experiments were performed in each case.” left out

[5] = 10 mM phosphate buffer, pH 7.4, read-out: IC50 (TNS displacement)
[6] = 150 mM sodium chloride, pH 2.5, read-out: IC50 (TNS displacement)

Molecule	Binding capacity / affinity of Len c 3 for saturated fatty acids (rLen c 3 [1])	IC50 (rLen c 3 [2]; [5])	IC50 (rLen c 3 [2]; [6])	Effect of ligand on rLen c 3 degradation rate (proteolytic digestion) (rLen c 3 [3]; LTP to lipid molar ratio 1:4)	Effect of ligand on rLen c 3 thermostability (resistance to thermal denaturation) (rLen c 3 [4])	Change of rLen c 3 affinity for the ligand at acidic pH (rLen c 3 [2])	Ability of rLen c 3 to bind the ligand after heating and cooling down (rLen c 3 [2]; pH 7.4, heated from 20 to 90 °C, then cooled down to 20 °C)	Effect of protein preheating before digestion in the presence of ligand on rate of allergen degradation (rLen c 3 [3]; after 4 and 24 h, effect more pronounced with LPPC)	Recovery of rLen c 3 structure after cooling down in the presence of ligand (rLen c 3 [4])	Effect of ligand on secondary structure of rLen c 3 (rLen c 3 [4]; pH 7.4, 20 °C, ligand 1 mM)	Degradation of rLen c 3 in the presence of ligand (rLen c 3 [3]; 24 h of duodenal digestion, LTP to lipid molar ratio 1:4)	IC50 (rLen c 3 [2]; IC50 (TNS displacement), 10 mM phosphate buffer, pH 7.4)	IC50 (rLen c 3 [2]; IC50 (TNS displacement), 150 mM sodium chloride, pH 2.5)	Degradation by pepsin (pepsin)
CCCCCCCCCCCCCCCCCCCC(=O)O [ARA, arachidic C20:0]	lower affinity	–	–	–	–	–	–	–	–	–	–	–	–	–
CCCCCCCCCCCCCCCCCCCCCC(=O)O [BEH, behenic (docosanoic) acid]	lower affinity	5.9 ± 0.2 µM	6.2 ± 0.1 µM	slightly accelerated the allergen proteolysis	slight protective effect	–	–	–	–	–	–	–	–	–
CCCCCCCCCCCC(=O)O [LAU, lauric acid]	highest binding capacities	2.1 ± 0.2 µM	2.1 ± 0.01 µM	quickly digested by trypsin/chymotrypsin	slight protective effect	remained unchanged	–	–	–	–	–	–	–	–
CCCCCCCCCCCCCCCC(=O)OC[C@@H](O)COP(=O)([O-])OCC[N+](C)(C)C [LPPC, lyso-palmitoyl phosphatidylcholine]	–	7.7 ± 0.02 µM	7.3 ± 0.01 µM	to a lesser extent, LPPC slowed down the allergen degradation	a complete denaturation of the protein did not occur even at 98.5 °C	slightly increased	not restored	slightly increased	recovery of the protein structure was not observed	increased the percentage of α-helices	–	–	–	–
CCCCCCCC/C=C\CCCCCCCC(=O)O [OLE, oleic acid]	–	2.4 ± 0.1 µM	2.6 ± 0.1 µM	more pronounced	increased the rLen c 3 thermostability	decreased	–	–	partial protein renaturation	–	~ 55%	–	–	–
CCCCCCCCCCCCCCCCCC(=O)O [STE, stearic acid]	–	–	–	slowed down the allergen degradation	increased the rLen c 3 thermostability	decreased	–	–	partial protein renaturation	–	–	4.5 ± 0.1 µM	5.1 ± 0.1 µM	–
B1	–	–	–	–	–	–	–	–	–	–	–	–	–	almost completely degraded
